Values quoted from earlier work in US8598325B2, “Solid-phase microextraction coatings and methods for their preparation” (priority 2002, dated 2013).
Like-named read-outs stand apart in the source and are kept apart here.

Columns and labels:
[1] = at 25° C.
[2] = not given; remark: listed apart in the source

For `CCCC(Cn1cncn1)c1ccc(Cl)cc1Cl` (centres unmarked) [Penconazole, penconazole], which LogP (pH 7) is on record?
Its LogP is 3.72.

And the “Vapour Pressure” value [1]?
The value was 0.366 mPa.

And the Sol. in water [2]?
Its Sol. in water is 73 mg/L.

Which LogP (pH 7) does the source give for `CC(C)(C)C(O)C(Oc1ccc(Cl)cc1)n1cncn1` (centres unmarked) [Triadimenol, triadimenol] here?
The LogP was 3.18.

For `CCCCC(O)(Cn1cncn1)c1ccc(Cl)cc1Cl` (centres unmarked) [Hexaconazole, hexaconazole], which LogP (pH 7) is on record?
The LogP was 3.9.

With `CC(C)(C)C(=O)C(Oc1ccc(Cl)cc1)n1cncn1` (centres unmarked) [Triadimefon, triadimefon] as the compound, how does the LogP (at pH 7, 20° C.) read?
Its LogP is 3.18.

And the “Vapour Pressure” value [1]?
Its value is 0.02 mPa.

And the Sol. in water [2]?
Its Sol. in water is 70 mg/L.
